Settings: Liquid, Vibrating wire viscometry

C=C(F)C(F)(F)F [2,3,3,3-tetrafluoro-1-propene]
Settings	viscosity [mPa·s]
243.16 K, 99 kPa	0.2892
243.16 K, 1000 kPa	0.2913
243.16 K, 3000 kPa	0.2982
243.16 K, 5000 kPa	0.3049
243.16 K, 10000 kPa	0.3212
243.16 K, 15000 kPa	0.3397
243.16 K, 20000 kPa	0.3572
243.16 K, 25000 kPa	0.3748
243.16 K, 30000 kPa	0.3927
253.16 K, 151 kPa	0.2554
253.16 K, 1000 kPa	0.258
253.16 K, 3000 kPa	0.2638
253.16 K, 5000 kPa	0.2708
253.16 K, 10000 kPa	0.2877
253.16 K, 15000 kPa	0.3038
253.16 K, 20000 kPa	0.3201
253.16 K, 25000 kPa	0.3362
253.16 K, 30000 kPa	0.3517
263.16 K, 222 kPa	0.2265
263.16 K, 1000 kPa	0.229
263.16 K, 3000 kPa	0.2355
263.16 K, 5000 kPa	0.242
263.16 K, 10000 kPa	0.2581
263.16 K, 15000 kPa	0.2731
263.16 K, 20000 kPa	0.2894
263.16 K, 25000 kPa	0.3035
263.16 K, 30000 kPa	0.3178
273.15 K, 316 kPa	0.2019
273.15 K, 1000 kPa	0.2033
273.15 K, 3000 kPa	0.21
273.15 K, 5000 kPa	0.2162
273.15 K, 10000 kPa	0.2313
273.15 K, 15000 kPa	0.2457
273.15 K, 20000 kPa	0.2601
273.15 K, 25000 kPa	0.2744
273.15 K, 30000 kPa	0.2874
283.14 K, 438 kPa	0.1796
283.14 K, 1000 kPa	0.1815
283.14 K, 3000 kPa	0.1873
283.14 K, 5000 kPa	0.194
283.14 K, 10000 kPa	0.2079
283.14 K, 15000 kPa	0.2222
283.14 K, 20000 kPa	0.2356
283.14 K, 25000 kPa	0.2487
283.14 K, 30000 kPa	0.262
293.15 K, 592 kPa	0.1612
293.15 K, 1000 kPa	0.1636
293.15 K, 3000 kPa	0.169
293.15 K, 5000 kPa	0.1755
293.15 K, 10000 kPa	0.1885
293.15 K, 15000 kPa	0.2018
293.15 K, 20000 kPa	0.2152
293.15 K, 25000 kPa	0.2287
293.15 K, 30000 kPa	0.2414
303.15 K, 784 kPa	0.1425
303.15 K, 1000 kPa	0.1434
303.15 K, 3000 kPa	0.149
303.15 K, 5000 kPa	0.1554
303.15 K, 10000 kPa	0.1696
303.15 K, 15000 kPa	0.1834
303.15 K, 20000 kPa	0.1965
303.15 K, 25000 kPa	0.2092
303.15 K, 30000 kPa	0.2215
313.14 K, 1019 kPa	0.1259
313.14 K, 3000 kPa	0.1324
313.14 K, 5000 kPa	0.1392
313.14 K, 10000 kPa	0.1543
313.14 K, 15000 kPa	0.1681
313.14 K, 20000 kPa	0.1808
313.14 K, 25000 kPa	0.1929
313.14 K, 30000 kPa	0.2046
323.16 K, 1303 kPa	0.1103
323.16 K, 3000 kPa	0.1169
323.16 K, 5000 kPa	0.1239
323.16 K, 10000 kPa	0.1396
323.16 K, 15000 kPa	0.1536
323.16 K, 20000 kPa	0.1664
323.16 K, 25000 kPa	0.1783
323.16 K, 30000 kPa	0.1893
333.16 K, 1643 kPa	0.0965
333.16 K, 3000 kPa	0.1031
333.16 K, 5000 kPa	0.1108
333.16 K, 10000 kPa	0.127
333.16 K, 15000 kPa	0.141
333.16 K, 20000 kPa	0.1537
333.16 K, 25000 kPa	0.1656
333.16 K, 30000 kPa	0.1762
343.16 K, 2046 kPa	0.0832
343.16 K, 3000 kPa	0.0885
343.16 K, 5000 kPa	0.0976
343.16 K, 10000 kPa	0.115
343.16 K, 15000 kPa	0.1291
343.16 K, 20000 kPa	0.1417
343.16 K, 25000 kPa	0.1534
343.16 K, 30000 kPa	0.1644
353.16 K, 2521 kPa	0.0685
353.16 K, 3000 kPa	0.0731
353.16 K, 5000 kPa	0.0846
353.16 K, 10000 kPa	0.1035
353.16 K, 15000 kPa	0.1189
353.16 K, 20000 kPa	0.1314
353.16 K, 25000 kPa	0.1424
353.16 K, 30000 kPa	0.1527
363.16 K, 3081 kPa	0.0521
363.16 K, 5000 kPa	0.0732
363.16 K, 10000 kPa	0.093
363.16 K, 15000 kPa	0.109
363.16 K, 20000 kPa	0.1211
363.16 K, 25000 kPa	0.1322
363.16 K, 30000 kPa	0.1429

Reference: the NIST ThermoML archive (doi:10.1016/j.jct.2013.03.013)
